Key:
[1] = molecular target: RNA-directed RNA polymerase (Hepacivirus hominis, UniProt O39930); experiment: Inhibition of HCV 1b BK NS5B RNA polymerase; parameters: species or system Hepatitis C virus (isolate BK)
[2] = Permeability at pH 7.4 by PAMPA assay; assay type: ADME; settings: read-out: permeability
Huh-7 = experiment: Cytotoxicity against Huh7 cells by MTS assay; assay type: functional, cell-based; settings: Homo sapiens

Chain of RNA-directed RNA polymerase (O39930 whole entry): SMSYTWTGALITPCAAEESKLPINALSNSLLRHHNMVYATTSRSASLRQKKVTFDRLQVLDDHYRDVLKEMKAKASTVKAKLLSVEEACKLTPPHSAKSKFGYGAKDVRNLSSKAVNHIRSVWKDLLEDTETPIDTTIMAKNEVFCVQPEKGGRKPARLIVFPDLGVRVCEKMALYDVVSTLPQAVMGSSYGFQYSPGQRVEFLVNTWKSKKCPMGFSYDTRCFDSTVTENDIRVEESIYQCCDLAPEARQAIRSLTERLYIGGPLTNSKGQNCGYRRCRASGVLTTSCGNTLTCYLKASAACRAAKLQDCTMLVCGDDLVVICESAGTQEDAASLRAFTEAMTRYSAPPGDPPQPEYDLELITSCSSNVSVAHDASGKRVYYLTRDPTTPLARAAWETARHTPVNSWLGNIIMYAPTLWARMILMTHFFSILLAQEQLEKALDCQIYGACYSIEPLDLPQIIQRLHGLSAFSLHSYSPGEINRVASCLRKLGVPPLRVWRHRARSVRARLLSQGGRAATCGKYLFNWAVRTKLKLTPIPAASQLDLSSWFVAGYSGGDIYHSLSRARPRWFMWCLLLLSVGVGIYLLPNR

SMILES	IC50 [1]	Papp [2]	IC50 (Huh-7)
CCCC1(CC(=O)O)CCCc2c1[nH]c1c(C#N)ccc(C#N)c21 (centres undefined)	2.3 µM	–	–
CCCC1(CC(=O)O)CCCc2c1[nH]c1c(F)c(F)ccc21 (centres undefined)	> 33 µM	–	–
CCCC1(CC(=O)O)CCCc2c1[nH]c1cc(F)cc(F)c21 (centres undefined)	30 µM	–	–
CCCC1(C(=O)O)CCc2c1[nH]c1c(C)cc(F)c(C#N)c21 (centres undefined)	1.8 µM	–	–
CCCCC1(C(=O)O)CCc2c1[nH]c1c(C)ccc(C#N)c21 (centres undefined)	4.6 µM	–	–
CCCC1(CC(=O)O)OCCc2c1[nH]c1c(C)ccc(C#N)c21 (centres undefined)	0.33 µM	–	–
CCCC1(CC(=O)O)CCCc2c1[nH]c1ccccc21 (centres undefined)	> 33 µM	–	–
CCCC1(CC(=O)O)CCCc2c1[nH]c1c(C)ccc(C#N)c21 (centres undefined)	2.1 µM	–	–
C=CCC1(C(=O)O)CCc2c1[nH]c1c(C)cc(F)c(C#N)c21 (centres undefined)	6.3 µM	–	–
CCCC1(C(=O)O)CCc2c1[nH]c1c(F)ccc(C#N)c21 (centres undefined)	8.1 µM	–	–
CCCCC1(C(=O)O)CCc2c1[nH]c1c(C)cc(F)c(C#N)c21 (centres undefined)	1.5 µM	–	–
CCCCC1(C(=O)O)CCc2c1[nH]c1c(Cl)ccc(Cl)c21 (centres undefined)	1.9 µM	–	–
C=CCC1(C(=O)O)CCc2c1[nH]c1c(Cl)ccc(Cl)c21 (centres undefined)	1.2 µM	–	–
CCCC1(C(=O)O)CCCc2c1[nH]c1c(C)ccc(C#N)c21 (centres undefined)	15 µM	–	–
CCCC1(CC(=O)O)CCCc2c1[nH]c1ccc(Cl)cc21 (centres undefined)	> 33 µM	–	–
CCCC1(CC(=O)O)CCCc2c1[nH]c1c(Cl)cc(Br)cc21 (centres undefined)	> 33 µM	–	–
CCCC1(C(=O)O)CCc2c1[nH]c1c(C)ccc(C#N)c21 (centres undefined)	4.7 µM	–	–
CCCC1(C(=O)O)CCCc2c1[nH]c1c(Cl)ccc(C(F)(F)F)c21 (centres undefined)	5.8 µM	–	–
CCCC1(C(=O)O)CCCc2c1[nH]c1c(F)ccc(C#N)c21 (centres undefined)	10 µM	–	–
CCCC1(C(=O)O)CCCc2c1[nH]c1c(Cl)ccc(Cl)c21 (centres undefined)	3.2 µM	–	–
CCCC1(CC(=O)O)CCCc2c1[nH]c1c(F)ccc(F)c21 (centres undefined)	> 33 µM	–	–
C=CCC1(C(=O)O)CCc2c1[nH]c1c(C)ccc(C#N)c21 (centres undefined)	11 µM	–	–
CCCC1(CC(=O)O)CCCc2c1[nH]c1c(F)ccc(C#N)c21 (centres undefined)	2 µM	–	–
C=CCC1(C(=O)O)CCc2c1[nH]c1c(F)ccc(C#N)c21 (centres undefined)	14.5 µM	–	–
CCCC1(CC(=O)O)CCCc2c1[nH]c1c(C(N)=O)ccc(C#N)c21 (centres undefined)	> 33 µM	–	–
CCCCC1(C(=O)O)CCc2c1[nH]c1c(F)ccc(C#N)c21 (centres undefined)	5.4 µM	–	–
CCCC1(C(=O)O)CCc2c1[nH]c1c(Cl)ccc(Cl)c21 (centres undefined)	0.55 µM	6.48 ×10⁻⁶ cm/s	43 µM
